Test [1] deals with Patients recently diagnosed with OSA. Put plainly: Intranasal oxytocin in patients recently diagnosed with OSA (polysomnography, sleep quality score). It is filed as in vivo, human. The following applies: 40 IU oxytocin intranasally about one hour prior to sleeping. How it is done: Patients recently diagnosed with OSA were recruited to test the effect of oxytocin administration on heart rate, apnea-hypopnea index, oxygen saturation, apnea duration, arousal index etc. The study is approved by the FDA (IND #120989). Patients were administered 40 IU of oxytocin intranasally about one hour prior to sleeping.
The following eight outcomes were compared in the same patients prior to and after administration with oxytocin: • basal heart rate before sleep (primary outcome) • mean changes in heart rate with apneic and hypopneic events (primary outcome) • apnea-hypopnea index (secondary outcome) • percentage of time spent by the patient with oxygen saturations: >90%, >80% but <90%, and <80% (secondary outcome) • duration of apneas • oxygen desaturation during apneas (expressed as adverse desaturations in percent oxygen) • numbers of arousals (expressed per hour) • sleep quality
The following information was recorded for each patient before and after the use of intranasal oxytocin:
• a. Basal heart rate before sleep • b. Apnea-hypopnea index • c. Mean changes in heart rate with apneic and hypopneic events • d. Percentage of time spent by the patient with oxygen saturations: >90%, >80% but <90%, and <80%. • e. Duration of apneas • f. Oxygen desaturation during apneas (expressed as adverse desaturations in percent oxygen) • g. Numbers of arousals (expressed per hour) • h. Sleep quality 3. Standard of care sleep study data using PSG: Polysomnography (PSG) monitors many body functions during sleep, including brain (EEG), eye movements (EOG), muscle activity or skeletal muscle activation (EMG), heart rhythm (ECG), respiratory airflow, thoracic and abdominal respiratory effort, body position, limb movement, and oxygen saturation using pulse oximetry. Recording and scoring was done according to the standards set by the American Academy of Sleep Medicine. 4. Sleep quality score: Patients were asked to rank their responses using the scale of 1-5 for a set of empirical factors: • 1—Strongly disagree • 2—Slightly disagree • 3—Neither agree nor disagree • 4—Slightly agree • 5—Strongly agree Empirical Factors: • I feel more refreshed than usual this morning • My quality of sleep last night was better than usual • I slept deeper than usual last night • I woke up fewer times than usual last night • I slept longer than usual last night • I feel better overall than usual this morning

For a further test, the system named is rats. The following applies: acute icy infusion of oxytocin; cited from earlier work.
Setting [2] is: same patients prior to and after administration.

SMILES strings stand for the structures. Entries after “also recorded” stand apart in the source; their conditions may differ.

`CC[C@H](C)[C@@H]1NC(=O)[C@H](Cc2ccc(O)cc2)NC(=O)[C@@H](N)CSSC[C@@H](C(=O)N2CCC[C@H]2C(=O)N[C@@H](CC(C)C)C(=O)NCC(N)=O)NC(=O)[C@H](CC(N)=O)NC(=O)[C@H](CCC(N)=O)NC1=O` [oxytocin]: in test [1] (setting [2]), the duration of apnea result is reported as “reduces”, the number of arousals/hour entry is “decreases; also recorded: reduces” and the oxygen desaturation result is given as “reduces”. Also, the “sleep quality or sleep satisfaction” value in test [1] (score on scale of 1-5 for empirical factors) is “improves”. In the test with rats, the “high-frequency activity in the electroencephalogram (EEG) within non-REMS” value is “augmented”; the “non-REMS and REMS” value was “transient reduction”; the sleep onset latency result was “delayed”.
